In this experiment the target is T1, CDK2/cyclinA (Homo sapiens, UniProt P24941).
T1 construct: C-terminal 6His-tagged human full length cdk2 (MW=35 kDa); 6His (C); made in house; host or cells: Sf21 insect cells (baculovirus)
As to the kind of experiment: CDK2 kinase assay (33P-ATP, Histone H1 substrate). In kind it is biochemical. Particulars: 1 μM ATP, 5 μM Histon H1, 2 hours at room temperature. An excerpt:
CDK2/cyclinA (Accession number for CDK2; EMBL M68520, for cyclin A; EMBL X51688): C-terminal 6His-tagged human full length cdk2 (MW=35 kDa), and N-terminal GST-tagged human full length cyclin A (MW=75 kDa) were expressed individually with baculovirus system in Sf21 insect cells. Recombinant cdk2 protein was purified with Ni2+/NTA agarose and then activated using CAK and repurified by Q Sepharose and Ni2+/NTA agarose. Recombinant cyclin A was purified using glutathione-agarose. They were then mixed in vitro to form protein complex. Recombinant protein complex was measured to be 67% in purity with SDS-PAGE and Coomassie blue staining. Specific activity of purified enzyme was measured to be 158 U/mg, where one unit of cdk2/cyclinA activity is defined as 1 nmol phosphate incorporated into 0.1 mg/ml histone H1 per minute at 30° C. with a final ATP concentration of […]. Enzyme was stored at a concentration of 0.1 mg/ml in 50 mM Tris/HCl pH7.5, 150 mM NaCl, 0.1 mM EGTA, 0.03% Brij-35, 270 mM sucrose, 1 mM benzamidine, 0.2 mM PMSF, 0.1% 2-mercaptoethanol. Frozen solution.
Histon H1 (Substrate for CDK2): Histone H1 (Sigma cat#H4524), was purified as a lysine rich fraction from calf thymus with 93% purity (MW=21.5 kDa). Purified protein was stored at a concentration of 20 mg/ml=930 μM in distilled water.
[…] (0.5 nmol) and 5 μM Histon H1 were mixed in the reaction buffer (20 mM HEPES (pH 7.5), 10 mM MgCl2, 1 mM EGTA, 0.02% Brij 35, 0.02 mg/ml BSA, 0.1 mM Na3VO4, 2 mM DTT) with final concentration of 1 μM ATP and 1% DMSO. The reaction was incubated for 2 hours at room temperature and conversion rate of ATP is about 4.5%. An equal volume of 25% TCA was added to stop the reaction and precipitate the labeled peptides. Precipitated proteins were trapped onto glass fiber B filterplates and excess […] p33 ATP was washed off. The plates were allowed to air-dry prior to the addition of 30 uL/well of Packard Microscint 20. The amount of incorporated isotope was measured using a Perkin Elmer TopCount plate reader. Different concentrations of compounds were added to reaction to assess the activity of compounds to inhibit […]. IC50 was calculated using Prism software with sigmoidal dose-response curve fitting.
The following TABLE B lists compounds representative of the invention and their activity in the CDK2 assay. In this assay, the following grading was used: I≧10 μM, 10 μM>II>1 μM, 1 μM>III>0.1 μM, and IV≦0.1 μM for IC50.

By IC50 is commonly meant the concentration needed to halve the response being measured. Molecule `CONC(=O)CCCCCCC(=O)Nc1ncc(SCc2ncc(C(C)(C)C)o2)s1` [Compound 1, N^1-(5-((5-tert-butyloxazol-2-yl)methylthio)thiazol-2-yl)-N^8-methoxyoctanediamide] yielded a 50% inhibitory concentration (IC50) of at most 100 nM. With `CC(C)(C)c1cnc(CSc2cnc(NC(=O)CCCCCCC(=O)NOCc3ccccc3)s2)o1` [Compound 2, N^1-(benzyloxy)-N^8-(5-((5-tert-butyloxazol-2-yl)methylthio)thiazol-2-yl)octanediamide] the figure was at most 100 nM; with `CC(C)(C)c1cnc(CSc2cnc(NC(=O)CCCCCCC(=O)NOC3CCCCO3)s2)o1` (stereo not drawn) [Compound 3, N^1-(5-((5-tert-butyloxazol-2-yl)methylthio)thiazol-2-yl)-N^8-(tetrahydro-2H-pyran-2-yloxy)octanediamide], at most 100 nM; with `CN(O)C(=O)CCCCCCC(=O)Nc1ncc(SCc2ncc(C(C)(C)C)o2)s1` [Compound 4, N^1-(5-((5-tert-butyloxazol-2-yl)methylthio)thiazol-2-yl)-N^8-hydroxy-N^8-methyloctanediamide], at most 100 nM. The same measure for `CC(C)(C)c1cnc(CSc2cnc(NC(=O)CCCCCCC(=O)N(O)Cc3ccccc3)s2)o1` [Compound 6, N^1-benzyl-N^8-(5-((5-tert-butyloxazol-2-yl)methylthio)-thiazol-2-yl)-N^1-hydroxyoctanediamide]: at most 100 nM; for `CC(C)(C)c1cnc(CSc2cnc(NC(=O)CCCCCCC(=O)NOCCO)s2)o1` [Compound 7, N^1-(5-((5-tert-butyloxazol-2-yl)methylthio)thiazol-2-yl)-N^8-(2-hydroxyethoxy)octanediamide]: at most 100 nM; for `CC(C)(C)c1cnc(CSc2cnc(NC(=O)CCCCCCC(=O)Nc3ccc(CCO)cc3)s2)o1` [Compound 8, N^1-(5-((5-tert-butyloxazol-2-yl)methylthio)thiazol-2-yl)-N^8-(4-(2-hydroxyethyl)phenyl)octanediamide]: at most 100 nM.

For the molecule `CC(C)(C)c1cnc(CSc2cnc(NC(=O)CCCCCCC(=O)Nc3ccccc3)s2)o1` [Compound 9, N^1-(5-((5-tert-butyloxazol-2-yl)methylthio)thiazol-2-yl)-N^8-phenyloctanediamide], the IC50 was at most 100 nM.

Molecule `CC(C)(C)c1cnc(CSc2cnc(NC(=O)CCCCCCC(=O)Nc3ccc(O)cc3)s2)o1` [Compound 10, N^1-(5-((5-tert-butyloxazol-2-yl)methylthio)thiazol-2-yl)-N^8-(4-hydroxyphenyl)octanediamide] had a half-inhibitory concentration (IC50) of at most 100 nM. The same measure for `CC(C)(C)c1cnc(CSc2cnc(NC(=O)C(=O)Nc3ccccc3)s2)o1` [Compound 11]: 100 to 1000 nM. Consider `CC(C)(C)c1cnc(CSc2cnc(NC(=O)CC(=O)Nc3ccccc3N)s2)o1` [Compound 13, N1-(2-aminophenyl)-N3-(5-((5-tert-butyloxazol-2-yl)methylthio)thiazol-2-yl)malonamide], for which the IC50 was at most 100 nM. On to `CC(C)(C)c1cnc(CSc2cnc(NC(=O)CCCC(=O)Nc3ccccc3N)s2)o1` [Compound 15, N1-(2-aminophenyl)-N5-(5-((5-tert-butyloxazol-2-yl)methylthio)thiazol-2-yl)glutaramide], for which the half-inhibitory concentration (IC50) was at most 100 nM. With `CC(C)(C)c1cnc(CSc2cnc(NC(=O)CCCCC(=O)Nc3ccccc3N)s2)o1` [Compound 16, N1-(2-aminophenyl)-N6-(5-((5-tert-butyloxazol-2-yl)methylthio)thiazol-2-yl)adipamide] the figure was at most 100 nM; with `CC(C)(C)c1cnc(CSc2cnc(NC(=O)CCCCCC(=O)Nc3ccccc3N)s2)o1` [Compound 17, N1-(2-aminophenyl)-N7-(5-((5-tert-butyloxazol-2-yl)methylthio)thiazol-2-yl)heptanediamide], at most 100 nM; with `CC(=O)Nc1ccccc1NC(=O)CCCCCCC(=O)Nc1ncc(SCc2ncc(C(C)(C)C)o2)s1` [Compound 19, N^1-(2-acetamidophenyl)-N^8-(5-((5-tert-butyloxazol-2-yl)methylthio)thiazol-2-yl)octanediamide], at most 100 nM. Consider `CC(Sc1cnc(NC(=O)CCCCCCC(=O)Nc2ccccc2N)s1)c1ncc(C(C)(C)C)o1` (stereo not drawn) [Compound 20, N^1-(2-aminophenyl)-N^8-(5-(1-(5-tert-butyloxazol-2-yl)ethylthio)thiazol-2-yl)octanediamide], for which the IC50 was at most 100 nM.

The molecule `CC(C)(C)c1cnc(CSc2cnc(NC(=O)CCCCCCC(=O)Nc3ccc(N)cc3)s2)o1` [Compound 21, N^1-(4-aminophenyl)-N^8-(5-((5-tert-butyloxazol-2-yl)methylthio)thiazol-2-yl)octanediamide] gave an IC50 of at most 100 nM. Turning to `CC(C)(C)c1cnc(CSc2cnc(NC(=O)CCCCCCC(=O)Nc3cccc(N)c3)s2)o1` [Compound 22, N^1-(3-aminophenyl)-N^8-(5-((5-tert-butyloxazol-2-yl)methylthio)thiazol-2-yl)octanediamide], the half-maximal inhibitory concentration (IC50) was at most 100 nM.

`CC(C)(C)c1cnc(CSc2cnc(NC(=O)CCCCCCC(=O)Nc3ccc(F)cc3N)s2)o1` [Compound 23, N^1-(2-amino-4-fluorophenyl)-N^8-(5-((5-tert-butyloxa-zol-2-yl)methylthio)thiazol-2-yl)octanediamide]: the concentration for half-maximal inhibition (IC50) is at most 100 nM.

Consider `Cc1ccc(NC(=O)CCCCCCC(=O)Nc2ncc(SCc3ncc(C(C)(C)C)o3)s2)c(N)c1` [Compound 26, N^1-(2-amino-4-methylphenyl)-N^8-(5-((5-tert-butyloxazol-2-yl)methylthio)thiazol-2-yl)octanediamide], for which the concentration for half-maximal inhibition (IC50) was at most 100 nM.

For the molecule `CC(C)(C)c1cnc(CSc2cnc(NC(=O)Nc3ccccc3N)s2)o1` [Compound 27, 1-(2-Aminophenyl)-3-(5-((5-tert-butyloxazol-2-yl)methyl-thio)thiazol-2-yl)urea], the IC50 was at most 100 nM. With `CC(C)(C)c1cnc(CSc2cnc(NC(=O)CCCCCCC(=O)Nc3ccccn3)s2)o1` [Compound 28, N^1-(5-((5-tert-butyloxazol-2-yl)methylthio)thiazol-2-yl)-N^8-(pyridin-2-yl)octanediamide] the figure was at most 100 nM; with `CC(C)(C)c1cnc(CSc2cnc(NC(=O)CCCCCCC(=O)Nc3cccnc3)s2)o1` [Compound 29, N^1-(5-((5-tert-butyloxazol-2-yl)methylthio)thiazol-2-yl)-N^8-(pyridin-3-yl)octanediamide], at most 100 nM; with `CC(C)(C)c1cnc(CSc2cnc(NC(=O)CCCCCCC(=O)Nc3ccncc3)s2)o1` [Compound 30, N^1-(5-((5-tert-butyloxazol-2-yl)methylthio)thiazol-2-yl)-N^8-(pyridin-4-yl)octanediamide], at most 100 nM. With `CONC(=O)CCCOc1ccc(CC(=O)Nc2ncc(SCc3ncc(C(C)(C)C)o3)s2)cc1` [Compound 31, 4-(4-(2-(5-((5-tert-butyloxazol-2-yl)methylthio)thiazol-2-ylamino)-2-oxoethyl)phenoxy)-N-methoxybutanamide], the half-maximal inhibitory concentration (IC50) is at most 100 nM. With `CN(O)C(=O)CCCOc1ccc(CC(=O)Nc2ncc(SCc3ncc(C(C)(C)C)o3)s2)cc1` [Compound 32, 4-(4-(2-(5-((5-tert-butyloxazol-2-yl)methylthio)thiazol-2-ylamino)-2-oxoethyl)phenoxy)-N-hydroxy-N-methylbutanamide] the figure was at most 100 nM. With `CC(C)(C)c1cnc(CSc2cnc(NC(=O)Cc3ccc(OCCC(=O)Nc4ccccc4N)cc3)s2)o1` [Compound 33] the figure was at most 100 nM; with `CC(C)(C)c1cnc(CSc2cnc(NC(=O)Cc3ccc(OCCCC(=O)Nc4ccccc4N)cc3)s2)o1` [Compound 34, N-(2-aminophenyl)-4-(4-(2-(5-((5-tert-butyloxazol-2-yl)methylthio)thiazol-2-ylamino)-2-oxoethyl)phenoxy)butanamide], at most 100 nM; with `CC(C)(C)c1cnc(CSc2cnc(NC(=O)Cc3ccc(OCCCCC(=O)Nc4ccccc4N)cc3)s2)o1` [Compound 35, N-(2-aminophenyl)-5-(4-(2-(5-((5-tert-butyloxazol-2-yl)methylthio)thiazol-2-ylamino)-2-oxoethyl)phenoxy)pentanamide], at most 100 nM. The same measure for `CC(C)(C)c1cnc(CSc2cnc(NC(=O)Cc3ccc(OCCCCCC(=O)Nc4ccccc4N)cc3)s2)o1` [Compound 36, N-(2-aminophenyl)-6-(4-(2-(5-((5-tert-butyloxazol-2-yl)methylthio)thiazol-2-ylamino)-2-oxoethyl)phenoxy)hexanamide]: at most 100 nM.

The record behind these values is patent US8691820B2, “CDK inhibitors” (Curis, Inc., priority 2008, dated 2014).
